According to patent US20250271361A1, “SUPERCONTINUUM INTRINSIC FLUORESCENCE IMAGING” (The Board of Trustees of the University of Illinois, priority 2024, published 2025):

Assays:
live BHK-21 cells [1] = test: time-lapse kinetic imaging assay (single-cell pharmacokinetic SOMI) of hamster kidney cells after transient exposure; settings: for cellular uptake by endocytosis via THG-visible nanovesicles: comparative kinetic assays of two mitochondrial uncouplers
Procedure: (§1) In the above experiments (e.g., in the procedures used to generate the images described above), the following materials and methods were provided or performed. Adherent Syrian golden hamster kidney fibroblast cells BHK-21 (clone 13, ATCC CCL-10) were cultured in phenol red-free Eagle's Minimum Essential Medium (EMEM) supplemented with 10% FBS, 1% penicillin-streptomycin-amphotericin B (PSA), and 2.5 mM L-Glutamine at 37° C. under 5% CO2, and atmospheric O2 conditions. Before imaging, 1 mL of trypsinized cells was resuspended in 1 mL of 1×TrypLE™ Select Enzyme cell dissociation reagent (TFS, Cat #12563029). The cells were plated on poly-D-lysine coated 35-mm diameter glass-bottom imaging dishes and maintained inside a humidified incubator with 5% CO2 and 21% O2 conditions at 37° C. The incubation time varied between 1-6 hours while the culture media might be supplemented with specific drugs or labeling agents at […] concentrations. The cells were imaged within 10 min of being taken out of the incubator.
Large area or 3D SOMI was enabled by a motorized sample stage. Without moving the stage, time-lapse imaging of dynamic phenomenon or frame-averaged imaging of static samples were conducted in a constant field-of-view. Single-cell pharmacokinetics imaging was performed in a time-lapse SOMI of 200-frame period at the center of a 35-mm diameter glass-bottom imaging culture dish with 2 mL culture media of live BHK-21 cells. During the imaging near the 50-frame timepoint, 0.1 mL of preprepared concentrated solution of a drug (BAM15/FCCP) or labeling agent (AP3) was injected in ˜1 s by a mounted pipette into the center of the dish, attaining an ending/equilibrium concentration of […]. The fluorescence from AP3 in a segmented empty space among the cells was used to detect the transient concentration profile of injected drugs and labeling agents during the time-lapse imaging.

live BHK-21 cells [2] = settings: statement of general knowledge, explained by the kinetic assay; cited from earlier work
[3] = tested on: hamster kidney fibroblast cells BHK-21; test: SCIFI/SOMI endpoint (snapshot) imaging assay of in vitro hamster kidney cells treated with a drug or imaging agent; type: cell-based, Syrian golden hamster
Procedure: Next, the interaction between in vitro hamster kidney cells with a drug or imaging agent were evaluated.
Power-dependent “imaging” experiments were conducted on the prepared solutions and coverslip across the six colors by an excitation that would be standardized for biological imaging. […] For the 6-color SOMI images (1024×1024 pixels) collected from a biological sample, the raw intensity image of each color was converted into a photon-count image (unit: photon/pulse) using the established (calibrated) relation for that color at the same photomultiplier gain. Then, some (2-72) discernable single cells or cell clusters were manually segmented in the 6-color photon-count images. Finally, the SOMI intensity profiles of segmented single cells (or cell clusters) averaged over the corresponding pixels were obtained after a background subtraction. Specifically, the background of the culture medium in the empty space among the segmented cells was subtracted for 2D cell culture samples while the background with blocked illumination was subtracted for all 3D (tissue) samples.
In contrast to reductionism-based imaging, the lack of FLIM capability for general fluorescence imaging presented another challenge that may have contributed to the low popularity of comparative systems biology-based imaging strategies. Due to the high dynamic range of SOMI in gentle biological imaging, comparative photon counting of FLIM with low dynamic range (<0.2 photon/pulse, typically) cannot be used. To recover this capability, time-resolved photon counts were determined using computational photon counting, which provides single-photon accuracy for signals with high dynamic range. The output of three analog output photomultipliers for 4PAF, 3PAF, and 2PAF was optionally amplified with a high-speed transimpedance amplifier (C5594, Hamamatsu), and digitized at 2 GS/s with a high-speed digitizer (ATS9373, AlazarTech). Digitized values were saved, and photon-counting and lifetime information was computed in post-processing using custom MATLAB scripts (Mathworks). FLIM for the 2PAF and 3PAF colors were validated using NADH, FAD, and other standard dyes. To calibrate computational photon counting for 4PAF, Trp solutions from 0 to 50 mM were examined and a single-photon peak threshold was determined based on the peak height histogram to ensure a linear relationship between intensity and concentration over this range. After computational photon counting, mean fluorescence lifetime and phasor components g and s were determined by phasor analysis. For single-cell quantification, all fluorescence decays within a segmented cell were summed together, and one mean fluorescence lifetime was estimated from the total decay, along with one g and one s value.
as §1

[4] = apoptotic hamster kidney cells, endpoint assay

| SMILES | cellular uptake by endocytosis via THG-visible nanovesicles (live BHK-21 cells [1]) | cytotoxicity sensed in real-time by 4PIF (live BHK-21 cells [1]; at a high concentration, transient exposure) | rise in FAD* coinciding with sudden decrease in ETC (live BHK-21 cells [1]; both BAM15 concentrations, kinetic assay) [fold] | induced FAD* in cytoplasm, BAM15 compared with FCCP (live BHK-21 cells [1]; comparative kinetic assays) | toxicity in mitochondrial uncoupling, compared with FCCP (live BHK-21 cells [2]) | LFI (lipofuscin fluorescence independence extent) ([3]; in vitro hamster kidney cells, endpoint assay, control 32%) [%] | color through which cells respond (live BHK-21 cells [1]; transient exposure, kinetic assay) [PIF/NADH but not THG] | LFI versus treatment-free control [3, 4] | ORR (optical redox ratio) versus treatment-free control [3, 4] | LFR (LOP-to-FAD ratio) ([3]; in vitro STS-induced apoptosis confirmed by single-cell morphological change) | apoptosis via modified cell morphology ([3]; in vitro hamster kidney cells, endpoint assay, different fields) | 3PIF (NADH) in 6-color profile ([3]; in vitro hamster kidney cells, label-free biomarker of apoptosis) |
| --- | --- | --- | --- | --- | --- | --- | --- | --- | --- | --- | --- | --- |
| N#CC(C#N)=NNc1ccc(OC(F)(F)F)cc1 [FCCP] | not |  |  |  |  |  |  |  |  |  |  |  |
| Fc1ccccc1Nc1nc2nonc2nc1Nc1ccccc1F [BAM15] | might enable cellular uptake | confirmed | ~10 | surprisingly larger | less toxic than FCCP | 44 |  |  |  |  |  |  |
| CN[C@@H]1C[C@H]2O[C@@](C)([C@@H]1OC)n1c3ccccc3c3c4c(c5c6ccccc6n2c5c31)C(=O)NC4 [STS, staurosporine] |  |  |  |  |  |  | 3 | retained a low LFI | reduced ORR | increase in LFR | induced apoptosis | peaked |
